Experimental data from ChEMBL document CHEMBL1201862, “PubChem BioAssay data set” (2004).
The source made the active and inactive calls. Rule as the data show it: actives have a measured IC50 and inactives only a lower limit.

Molecular target: Envelope glycoprotein gp160 (Human immunodeficiency virus 1, UniProt Q6QLK5)
Test: inhibitors of HIV fusion peptide binding, primary screen, biochemical, uHTS, fluorescence dequenching (AID 1986)

Chain of Envelope glycoprotein gp160 (Q6QLK5 whole entry, the tested form may be a part): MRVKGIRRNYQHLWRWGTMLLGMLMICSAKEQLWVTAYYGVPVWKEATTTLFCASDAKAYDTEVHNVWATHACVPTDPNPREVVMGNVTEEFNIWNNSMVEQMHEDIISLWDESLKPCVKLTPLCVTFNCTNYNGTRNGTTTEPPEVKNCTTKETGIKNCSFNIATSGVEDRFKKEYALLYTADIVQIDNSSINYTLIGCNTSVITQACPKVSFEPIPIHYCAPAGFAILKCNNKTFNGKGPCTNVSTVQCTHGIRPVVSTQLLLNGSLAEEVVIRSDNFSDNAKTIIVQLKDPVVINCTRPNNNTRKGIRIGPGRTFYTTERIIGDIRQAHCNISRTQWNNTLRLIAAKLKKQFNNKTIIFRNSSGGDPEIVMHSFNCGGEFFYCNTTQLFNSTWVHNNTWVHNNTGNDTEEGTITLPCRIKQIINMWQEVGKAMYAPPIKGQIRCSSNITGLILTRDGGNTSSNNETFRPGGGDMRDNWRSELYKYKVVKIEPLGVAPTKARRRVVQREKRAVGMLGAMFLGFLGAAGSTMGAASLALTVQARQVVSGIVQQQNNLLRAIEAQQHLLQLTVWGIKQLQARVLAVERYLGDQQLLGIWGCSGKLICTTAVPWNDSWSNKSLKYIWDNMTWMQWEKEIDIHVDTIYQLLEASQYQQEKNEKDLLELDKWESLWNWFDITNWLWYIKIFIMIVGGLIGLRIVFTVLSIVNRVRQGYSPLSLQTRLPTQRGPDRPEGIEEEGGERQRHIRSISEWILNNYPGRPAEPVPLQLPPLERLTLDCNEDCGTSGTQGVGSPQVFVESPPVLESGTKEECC

SMILES | IC50
Cc1ccc(S(=O)(=O)Oc2ccc(/C=C3\C(=N)N4N=C(S(C)(=O)=O)SC4=NC3=O)cc2)cc1 | 16.2 µM (active)
CCCCCOc1ccc(C2C(C(=O)c3ccc(C)o3)=C(O)C(=O)N2c2cc(C)on2)cc1 (configuration not stated) | 22.8 µM (active)
